# Data as given in patent publication US8946216B2, “Indazole derivatives useful as ERK inhibitors” (Merck Sharp & Dohme Corp., priority 2010, dated 2015).
# Columns and labels:
# [1] = biological target: fully phosphorylated, active Mouse ERK2 protein (Mus musculus, UniProt P63085); experiment: Active ERK2 (aERK) assay, IMAP format; format: biochemical; settings: 30 min preincubation; 1 μM substrate peptide, 30 μM ATP; fluorescence polarization; read-out: aERK2 IC50
# Protocol: Active ERK2 (aERK) Assay:
# Activated ERK2 activity was also determined in the IMAP assay format using the procedure outlined above. 1 μl of 25× compound was added to 14 μl of kinase buffer containing 0.25 ng fully phosphorylated, active Mouse ERK2 protein. Following a 30 minute incubation, the reactions were initiated by addition of 10 μl of kinase buffer containing 1 μM ERK2 IMAP substrate peptide (0.9 μM unlabeled IPTTPITTTYFFFK--CONH2 and 100 nM IPTTPITTTYFFFK(5-carboxyfluorescein)-CONH2) and 30 μM ATP. Reactions proceeded for 30 minutes before termination by addition of 60 μl IMAP detection beads in binding buffer. Plates were read as above after 30 minute binding equilibration. Active compounds were reconfirmed in an independent assay.
# [2] = biological target: unphosphorylated Mouse ERK2 protein (inactive ERK2) (Mus musculus, UniProt P63085); experiment: Coupled ERK2 (cERK) assay, coupled MEK1/ERK2 IMAP; format: biochemical; settings: 30 min preincubation with inactive ERK2, then activation by human MEK1; 30 μM ATP; fluorescence polarization; read-out: cERK2 IC50
# Chain of unphosphorylated Mouse ERK2 protein (inactive ERK2) (P63085 whole entry): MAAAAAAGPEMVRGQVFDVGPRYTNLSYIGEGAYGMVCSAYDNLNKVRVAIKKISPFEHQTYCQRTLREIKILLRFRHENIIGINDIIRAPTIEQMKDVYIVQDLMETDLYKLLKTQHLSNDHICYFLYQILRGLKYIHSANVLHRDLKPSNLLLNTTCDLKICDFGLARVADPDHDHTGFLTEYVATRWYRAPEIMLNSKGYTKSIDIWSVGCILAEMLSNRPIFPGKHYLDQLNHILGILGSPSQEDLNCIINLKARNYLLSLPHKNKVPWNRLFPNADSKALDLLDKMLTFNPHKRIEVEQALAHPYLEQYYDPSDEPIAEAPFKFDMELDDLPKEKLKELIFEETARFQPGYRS
# Description: • 1. M. W. Pantoliana, E. C. Petrella, J. D. Kwasnoski, V. S. Lobanov, J. Myslik, E. Graf, T. Carver, E. Asel, B. A. Springer, P. Lane, F. R. Salemme, High-density miniaturized thermal shift assays as a general strategy for drug discovery, J. Biomol. Screen 6 (2001) 429-440 • 2. J. F. Brandts, L.-N. Lin, Study of strong to ultratight protein interactions using differential scanning calorimetry, Biochemistry 29 (1990) 6927-6940 • 3. Mayhood, T. W., Windsor, W. T., Ligand binding affinity determined by temperature-dependent circular dichroism: Cyclin-dependent kinase 2 inhibitors, Analytical Biochemistry 345 (2005) 187-197 Coupled ERK2 (cERK) Assay:
# 14 μl of kinase buffer (10 mM Tris.HCl pH 7.2, 10 mM MgCl2, 0.01% Tween-20, 1 mM DTT) containing 0.4 ng unphosphorylated Mouse ERK2 protein was added to each well of a black 384-well assay plate. […] DMSO concentration during initial incubation is 6.7%. ERK2 activity was determined to be insensitive to DMSO concentrations up to 20%. ERK2 was then activated and it's kinase activity measured by the addition of 10 μl kinase buffer with the following components (final concentration per reaction): 2 ng active (phosphorylated) human MEK1 protein and 4 μM (total) ERK2 IMAP substrate peptides (3.9 μM unlabeled IPTTPITTTYFFFK-CONH2 and 100 nM IPTTPITTTYFFFK(5-carboxyfluorescein)-CONH2) and 30 μM ATP. DMSO concentration during ERK activation was 4%. After one hour, reactions were terminated by addition of 60 μl IMAP detections beads in binding buffer (Molecular Devices). Binding was allowed to equilibrate for 30 minutes before reading the plate on an LJL Analyst Fluorescence Polarization plate reader. […] Active compounds were reconfirmed in an independent assay.
# ERK protein = ERK protein (Homo sapiens, UniProt P28482); experiment: TdF (Temperature Dependence Fluorescence, thermal shift) assay for ERK; format: binding; settings: read-out: TdF Kd; 3 μM ERK protein, 15, 50 or 100 μM compound, Sypro Orange; Kd calculated from ΔTm; uncertainty estimated ±50%
# Chain of ERK protein (P28482 2-360): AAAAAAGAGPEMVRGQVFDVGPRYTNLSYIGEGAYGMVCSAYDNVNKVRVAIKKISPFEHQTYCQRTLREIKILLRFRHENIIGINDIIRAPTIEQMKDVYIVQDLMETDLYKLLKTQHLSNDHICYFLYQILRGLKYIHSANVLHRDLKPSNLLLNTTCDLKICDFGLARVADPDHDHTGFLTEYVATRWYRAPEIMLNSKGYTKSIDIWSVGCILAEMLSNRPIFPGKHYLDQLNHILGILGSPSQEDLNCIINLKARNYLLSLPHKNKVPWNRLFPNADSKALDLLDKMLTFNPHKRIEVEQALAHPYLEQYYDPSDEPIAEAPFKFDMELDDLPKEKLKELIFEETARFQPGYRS
# Description: Assays: TdF Assay for ERK
# The SAR (Structure Activity Relationship) for ERK ligands covered by this invention was interrogated using the TdF (Temperature Dependence Fluorescence) assay or best known as thermal shift assay. The TdF assay was mainly conducted in the 96-well based CHROMO-4 real time fluorescence plate reader (BioRad). The Sypro Orange (Sigma-Aldrich), environmentally sensitive fluorescence dye, was used to monitor the protein folding-unfolding transition. Protein-ligand binding was gauged by the change (or shift) in the unfolding transition temperature (ΔTm) acquired at protein alone with respect to protein in the presence of ligand of interest.
# Compound of interest was first prepared in DMSO stock (typical concentration: 10 mM). Sample of 20 μL was then added into the 96-well PCR plate, where it consisted of 3 μM. […] Final percentage of DMSO resided in the sample was 2%. The sample plate was heated from 30° C. to 90° C. with thermal ramping rate of 1 ° C./min. The fluorescence signals were acquired with excitation and emission wavelengths centered at 490 and 560 nm respectively. The instrument thermal stability was ±0.2° C. The melting temperatures (Tm) for ERK protein under aforementioned conditions occurred at 61.0±0.2° C. and 64.8±0.2° C. respectively.
# Theoretical Basis for TdF-based Ligand Binding Affinity Constant
# The derivation of TdF-based ligand binding affinity constant (Kd) followed closely those previously formulated by Brandts and Lin [2]. In brief, the binding constant of the ligand at the Tm is expressed as below: […]
# where T0 is the midpoint of unfolding for unliganded protein and Tm is the midpoint of unfolding in presence of ligand. [LTm] is free ligand at Tm. The ΔHu and ΔCpu are the enthalpy of unfolding and heat capacity change of unfolding for the protein respectively. Following algorithm derived by Winsor and coworker, the T0, ΔHu and ΔCpu can be determined separately from nonlinear regression fitting the protein alone melting curve:
# Where F(T) is the observed fluorescence intensity at any temperature T, Yn and Yu are the predicted fluorescence intensities for fully folded and unfolded protein, respectively; mn and mu are slope correction for changes in Yn and Yu with respect to changes in temperature (analogously replace T0 with Tm in the above equation for liganded protein to yield Tm).
# where ΔHL(T) is the van't Hoff enthalpy of ligand binding at temperature T and ΔCpL is the heat capacity upon ligand binding. For simplicity, the ΔCpL and ΔHL(T) were set to zero and −7 kcal/mol respectively. The uncertainty in the calculated ligand binding affinity constant was estimated to be ±50%.
# Chain of fully phosphorylated, active Mouse ERK2 protein (P63085 whole entry): as the sequence (P63085 whole entry) above
Compound,IC50 [1] [nM],IC50 [2] [nM],Kd (ERK protein) [nM]
"O=C(Nc1ccc2[nH]nc(-c3ccncc3)c2c1)C1CNCCO1 (stereo not drawn) [Compound 16, N-[3-(4-PYRIDINYL)-1H-INDAZOL-5-YL]-2-MORPHOLINECARBOXAMIDE]",852,2140,13500
"O=C(Nc1ccc2[nH]nc(-c3ccncc3)c2c1)C1CNCCS1 (stereo not drawn) [Compound 17, N-[3-(4-PYRIDINYL)-1H-INDAZOL-5-YL]-2-THIOMORPHOLINECARBOXAMIDE]",124,109,5630
"Cc1nc(CN2CCOC(C(=O)Nc3ccc4[nH]nc(-c5ccncc5)c4c3)C2)cs1 (stereo not drawn) [Compound 18, 4-[(2-METHYL-4-THIAZOLYL)METHYL]-N-[3-(4-PYRIDINYL)-1H-INDAZOL-5-YL]-2-MORPHOLINECARBOXAMIDE]",18100,1170,571
"O=C(Nc1ccc2[nH]nc(-c3ccncc3)c2c1)C1CN(Cc2cccnc2)CCO1 (stereo not drawn) [Compound 19, N-[3-(4-PYRIDINYL)-1H-INDAZOL-5-YL]-4-(3-PYRIDINYLMETHYL)-2-MORPHOLINECARBOXAMIDE]",17000,2200,517
"CSc1ccc(CN2CCOC(C(=O)Nc3ccc4[nH]nc(-c5ccncc5)c4c3)C2)cc1 (stereo not drawn) [Compound 34, 4-[[4-(METHYLTHIO)PHENYL]METHYL]-N-[3-(4-PYRIDINYL)-1H-INDAZOL-5-YL]-2-MORPHOLINECARBOXAMIDE]",957,508,423
"O=C(Nc1ccc2[nH]nc(-c3ccncc3)c2c1)C1CN(Cc2ccccc2)CCS1 (stereo not drawn) [Compound 36, 4-(PHENYLMETHYL)-N-[3-(4-PYRIDINYL)-1H-INDAZOL-5-YL]-2-THIOMORPHOLINECARBOXAMIDE]",1840,166,62
"O=C(Nc1ccc2[nH]nc(-c3ccncc3)c2c1)C1CN(Cc2cccc(F)c2F)CCO1 (stereo not drawn) [Compound 43, 4-[(2,3-DIFLUOROPHENYL)METHYL]-N-[3-(4-PYRIDINYL)-1H-INDAZOL-5-YL]-2-MORPHOLINECARBOXAMIDE]",139,218,214
"O=C(Nc1ccc2[nH]nc(-c3ccncc3)c2c1)C1CN(Cc2ccc(F)cc2F)CCO1 (stereo not drawn) [Compound 45, 4-[(2,4-DIFLUOROPHENYL)METHYL]-N-[3-(4-PYRIDINYL)-1H-INDAZOL-5-YL]-2-MORPHOLINECARBOXAMIDE]",138,275,80
"COc1ccc(F)c(CN2CCOC(C(=O)Nc3ccc4[nH]nc(-c5ccncc5)c4c3)C2)c1 (stereo not drawn) [Compound 46, 4-[(2-FLUORO-5-METHOXYPHENYL)METHYL]-N-[3-(4-PYRIDINYL)-1H-INDAZOL-5-YL]-2-MORPHOLINECARBOXAMIDE]",148,148,167
"O=C(Nc1ccc2[nH]nc(-c3ccncc3)c2c1)C1CN(Cc2c(F)ccc(Cl)c2F)CCO1 (stereo not drawn) [Compound 47, 4-[(3-CHLORO-2,6-DIFLUOROPHENYL)METHYL]-N-[3-(4-PYRIDINYL)-1H-INDAZOL-5-YL]-2-MORPHOLINECARBOXAMIDE]",581,452,223
"O=C(Nc1ccc2[nH]nc(-c3ccncc3)c2c1)C1CN(Cc2c(F)ccc(F)c2Cl)CCO1 (stereo not drawn) [Compound 48, 4-[(2-CHLORO-3,6-DIFLUOROPHENYL)METHYL]-N-[3-(4-PYRIDINYL)-1H-INDAZOL-5-YL]-2-MORPHOLINECARBOXAMIDE]",371,909,202
"O=C(Nc1ccc2[nH]nc(-c3ccncc3)c2c1)C1CN(Cc2cc(Cl)cc(Cl)c2)CCO1 (stereo not drawn) [Compound 50, 4-[(3,5-DICHLOROPHENYL)METHYL]-N-[3-(4-PYRIDINYL)-1H-INDAZOL-5-YL]-2-MORPHOLINECARBOXAMIDE]",8680,8840,500
"O=C(Nc1ccc2[nH]nc(-c3ccncc3)c2c1)C1CCCN(C(=O)c2ccccc2)C1 (stereo not drawn) [Compound 56, 1-BENZOYL-N-[3-(4-PYRIDINYL)-1H-INDAZOL-5-YL]-3-PIPERIDINECARBOXAMIDE]",553,150,420

# Continued by falling IC50 [1], values first:
IC50 [1] [nM],IC50 [2] [nM],Kd (ERK protein) [nM],Compound
123,151,141,"O=C(Nc1ccc2[nH]nc(-c3ccncc3)c2c1)C1CN(Cc2cccc(Cl)c2)CCO1 (stereo not drawn) [Compound 29, 4-[(3-CHLOROPHENYL)METHYL]-N-[3-(4-PYRIDINYL)-1H-INDAZOL-5-YL]-2-MORPHOLINECARBOXAMIDE]"
111,173,27,"O=C(Nc1ccc2[nH]nc(-c3ccncc3)c2c1)C1CN(Cc2c(F)cccc2Cl)CCO1 (stereo not drawn) [Compound 37, 4-[(2-CHLORO-6-FLUOROPHENYL)METHYL]-N-[3-(4-PYRIDINYL)-1H-INDAZOL-5-YL]-2-MORPHOLINECARBOXAMIDE]"
102,69.5,70,"O=C(Nc1ccc2[nH]nc(-c3ccncc3)c2c1)C1CNCCC1c1ccccc1 (stereo not drawn) [Compound 53, 4-PHENYL-N-[3-(4-PYRIDINYL)-1H-INDAZOL-5-YL]-3-PIPERIDINECARBOXAMIDE]"
82.3,91.5,23,"N#Cc1ccccc1N1CCCC(C(=O)Nc2ccc3[nH]nc(-c4ccncc4)c3c2)C1 (stereo not drawn) [Compound 55, 1-(2-CYANOPHENYL)-N-[3-(4-PYRIDINYL)-1H-INDAZOL-5-YL]-3-PIPERIDINECARBOXAMIDE]"
69.2,109,165,"O=C(Nc1ccc2[nH]nc(-c3ccncc3)c2c1)C1CN(Cc2c(F)cccc2F)CCO1 (stereo not drawn) [Compound 44, 4-[(2,6-DIFLUOROPHENYL)METHYL]-N-[3-(4-PYRIDINYL)-1H-INDAZOL-5-YL]-2-MORPHOLINECARBOXAMIDE]"
56.5,60.8,18,"O=C(Nc1ccc2[nH]nc(-c3ccncc3)c2c1)C1CNCCC1c1ccc(F)cc1 (stereo not drawn) [Compound 52, 4-(4-FLUOROPHENYL)-N-(3-(PYRIDIN-4-YL)-1H-INDAZOL-5-YL)PIPERIDINE-3-CARBOXAMIDE]"
37.9,80.9,79,"COc1ccccc1CN1CCOC(C(=O)Nc2ccc3[nH]nc(-c4ccncc4)c3c2)C1 (stereo not drawn) [Compound 35, 4-[(2-METHOXYPHENYL)METHYL]-N-[3-(4-PYRIDINYL)-1H-INDAZOL-5-YL]-2-MORPHOLINECARBOXAMIDE]"
